Results as given in patent US20230085307A1, “PYRIDAZINONE COMPOUND AND HERBICIDE” (NISSAN CHEMICAL CORPORATION, priority 2019, published 2023).

What was measured:
Italian ryegrass [1] = test: Test Example 4: herbicidal effect by soil treatment (Table 19, symbol K); format: in vivo, Italian ryegrass (Lolium multiflorum); settings: amount of applied herbicide 320 g/ha
Procedure, shortened: (§1)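 Herbicidal effect was rated 3 weeks after treatment, using the scoring criteria of an earlier test. The compound, formulated as an emulsion and diluted in water to a set herbicide amount, had been sprayed uniformly on soil over freshly sown seeds. Growth took place in a greenhouse at 25° C. to 30° C.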

blackgrass [2] = test: Test Example 4: herbicidal effect by soil treatment (Table 19, symbol J); format: in vivo, blackgrass (Alopecurus myosuroides); settings: amount of applied herbicide 320 g/ha
Procedure, shortened: as §1

blackgrass [3] = test: Test Example 5: herbicidal effect by foliage application, plastic box (Table 20, symbol J); format: in vivo, blackgrass (Alopecurus myosuroides); settings: foliage application; for J: blackgrass, herbicidal effect grade: 320 g/ha, three weeks after application
Procedure, shortened: (§2)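 Foliar spray test: emulsion formulation diluted in water to a set application rate, sprayed onto 14-day-old plants raised in diluvial soil at 25° C to 30° C under glass. Both herbicidal effect and crop effect rated visually three weeks later.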

barnyard grass [4] = test: Test Example 4: herbicidal effect by soil treatment (Table 19, symbol H); format: in vivo, barnyard grass (Echinochloa crus-galli); settings: amount of applied herbicide 320 g/ha
Procedure, shortened: as §1

green foxtail = test: Test Example 4: herbicidal effect by soil treatment (Table 19, symbol G); format: in vivo, green foxtail (Setaria viridis); settings: amount of applied herbicide 320 g/ha
Procedure, shortened: as §1

wild oat [5] = test: Test Example 4: herbicidal effect by soil treatment (Table 19, symbol I); format: in vivo, wild oat (Avena fatua); settings: amount of applied herbicide 320 g/ha
Procedure, shortened: as §1

barnyard grass [6] = test: Test Example 3: herbicidal effect by foliage application, Wagner pot (Table 18, symbol H); format: in vivo, barnyard grass (Echinochloa crus-galli); settings: for herbicidal effect on H: barnyard grass: amount of applied herbicide 320 g/ha
Procedure, shortened: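 Plants were sown in alluvial soil held under 0.1–0.5 cm standing water and grown 14 days in a greenhouse at 25–30 °C. An emulsifiable formulation, water-diluted to the set dose, was then sprayed onto the foliage, and effects were scored three weeks later using previously defined criteria.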

Japanese bulrush [7] = test: Test Example 1: herbicidal activity, application before weed generation under submerged conditions (Table 16, symbol B); format: in vivo, Japanese bulrush (Schoenoplectus juncoides); settings: amount of applied herbicide 320 g/ha
Procedure, shortened: (§3)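 Emulsion formulation, water-diluted to set dose, was put onto the flooded surface (4 cm depth, alluvial soil) the same day weeds were sown and 2.5-leaf rice transplanted. After 3 weeks at 25-30 °C under glass, each species was rated 0 (≤5% kill) to 5 (≥90% kill).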

wild oat [8] = test: Test Example 5: herbicidal effect by foliage application, plastic box (Table 20, symbol I); format: in vivo, wild oat (Avena fatua); settings: foliage application; for I: wild oat, herbicidal effect grade: 320 g/ha, three weeks after application
Procedure, shortened: as §2

late watergrass [9] = test: Test Example 2: herbicidal activity, application during weed generation under submerged conditions (Table 17, symbol A); format: in vivo, late watergrass (Echinochloa oryzicola); settings: AAH 320 g/ha; application during weed generation, submerged conditions
Procedure, shortened: (§4)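 Herbicide emulsion, diluted with water to the chosen amount, is applied onto 4 cm floodwater over alluvial soil where the weeds were co-sown and raised at 25–30° C. Application timing: 1–2 leaves. Assessment: three weeks afterwards.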

chickweed = test: Test Example 4: herbicidal effect by soil treatment (Table 19, symbol P); format: in vivo, common chickweed (Stellaria media); settings: amount of applied herbicide 320 g/ha
Procedure, shortened: as §1

Italian ryegrass [10] = test: Test Example 5: herbicidal effect by foliage application, plastic box (Table 20, symbol K); format: in vivo, Italian ryegrass (Lolium multiflorum); settings: foliage application; for K: Italian ryegrass, herbicidal effect grade: 320 g/ha, three weeks after application
Procedure, shortened: as §2

redroot pigweed = test: Test Example 5: herbicidal effect by foliage application, plastic box (Table 20, symbol N); format: in vivo, redroot pigweed (Amaranthus retroflexus); settings: foliage application; for N: redroot pigweed, herbicidal effect grade: 320 g/ha, three weeks after application
Procedure, shortened: as §2

late watergrass [11] = test: Test Example 1: herbicidal activity, application before weed generation under submerged conditions (Table 16, symbol A); format: in vivo, late watergrass (Echinochloa oryzicola); settings: amount of applied herbicide 320 g/ha
Procedure, shortened: as §3

persian speedwell = test: Test Example 4: herbicidal effect by soil treatment (Table 19, symbol R); format: in vivo, Persian speedwell (Veronica persica); settings: amount of applied herbicide 320 g/ha
Procedure, shortened: as §1

Japanese bulrush [12] = test: Test Example 2: herbicidal activity, application during weed generation under submerged conditions (Table 17, symbol B); format: in vivo, Japanese bulrush (Schoenoplectus juncoides); settings: AAH 320 g/ha; application during weed generation, submerged conditions
Procedure, shortened: as §4

velvetleaf = test: Test Example 5: herbicidal effect by foliage application, plastic box (Table 20, symbol M); format: in vivo, velvetleaf (Abutilon theophrasti); settings: foliage application; for M: velvetleaf, herbicidal effect grade: 320 g/ha, three weeks after application
Procedure, shortened: as §2

[13] = AAH 320 g/ha, evaluated three weeks after application

Row | Structure (SMILES) | herbicidal effect, K: Italian ryegrass (Italian ryegrass [1]) | herbicidal effect, J: blackgrass (blackgrass [2]) | herbicidal effect, H: barnyard grass (barnyard grass [4]) | herbicidal effect, G: green foxtail (green foxtail) | herbicidal effect, I: wild oat (wild oat [5]) | herbicidal effect on H: barnyard grass (barnyard grass [6]) | Herbicidal effect, B: Japanese bulrush (Japanese bulrush [7]) | herbicidal effect rating, A: late watergrass (late watergrass [9]) | herbicidal effect, P: chickweed (chickweed) | Herbicidal effect, A: late watergrass (late watergrass [11]) | herbicidal effect, R: persian speedwell (persian speedwell) | herbicidal effect rating, B: Japanese bulrush (Japanese bulrush [12]) | J: blackgrass, herbicidal effect grade (blackgrass [3]) | I: wild oat, herbicidal effect grade (wild oat [8]) | K: Italian ryegrass, herbicidal effect grade (Italian ryegrass [10]) | N: redroot pigweed, herbicidal effect grade (redroot pigweed) | M: velvetleaf, herbicidal effect grade (velvetleaf) | further results
1 | Cc1nn(C)c(=O)c(-c2c(-c3ccc4c(c3)OC(F)(F)O4)sc3ccc(F)cc23)c1O [2-392] | 3 (Herbicidal rate of 40% or more and less than 70%) | 0 (Herbicidal rate of 5% or less (almost no effect)) | 2 (Herbicidal rate of 20% or more and less than 40%) | 1 (Herbicidal rate of 5% or more and less than 20%) | 0 (Herbicidal rate of 5% or less (almost no effect)) | 5 (Herbicidal rate of 90% or more (almost completely withered)) | 0 (Herbicidal rate of 5% or less (almost no effect)) | 2 (Herbicidal rate of 20% or more and less than 40%) | 5 (Herbicidal rate of 90% or more (almost completely withered)) | 3 (Herbicidal rate of 40% or more and less than 70%) | 5 (Herbicidal rate of 90% or more (almost completely withered)) | 0 (Herbicidal rate of 5% or less (almost no effect)) |  |  |  |  |  | J: blackgrass, herbicidal effect (criteria 0-5) (blackgrass [3]; [13]): 0 (Herbicidal rate of 5% or less (almost no effect)); I: wild oat, herbicidal effect (criteria 0-5) (wild oat [8]; [13]): 4 (Herbicidal rate of 70% or more and less than 90%); K: Italian ryegrass, herbicidal effect (criteria 0-5) (Italian ryegrass [10]; [13]): 5 (Herbicidal rate of 90% or more (almost completely withered)); N: redroot pigweed, herbicidal effect (criteria 0-5) (redroot pigweed; [13]): 4 (Herbicidal rate of 70% or more and less than 90%); M: velvetleaf, herbicidal effect (criteria 0-5) (velvetleaf; [13]): 5 (Herbicidal rate of 90% or more (almost completely withered))
2 | CCOc1ccc2c(-c3c(O)c(C)nn(C)c3=O)c(-c3ccc(F)cc3OCC)sc2c1 [3-095] |  |  |  |  |  |  | 5 (Herbicidal rate of 90% or more (almost completely withered)) | 4 (Herbicidal rate of 70% or more and less than 90%) |  | 5 (Herbicidal rate of 90% or more (almost completely withered)) |  | 5 (Herbicidal rate of 90% or more (almost completely withered)) | 4 (Herbicidal rate of 70% or more and less than 90%) | 5 (Herbicidal rate of 90% or more (almost completely withered)) | 5 (Herbicidal rate of 90% or more (almost completely withered)) | 5 (Herbicidal rate of 90% or more (almost completely withered)) | 5 (Herbicidal rate of 90% or more (almost completely withered)) | K: Italian ryegrass, herbicidal effect grade (Italian ryegrass [1]): 2 (Herbicidal rate of 20% or more and less than 40%); J: blackgrass, herbicidal effect grade (blackgrass [2]): 4 (Herbicidal rate of 70% or more and less than 90%); H: barnyard grass, herbicidal effect grade (barnyard grass [4]): 5 (Herbicidal rate of 90% or more (almost completely withered)); G: green foxtail, herbicidal effect grade (green foxtail): 5 (Herbicidal rate of 90% or more (almost completely withered)); I: wild oat, herbicidal effect grade (wild oat [5]): 3 (Herbicidal rate of 40% or more and less than 70%); herbicidal effect on barnyard grass (H) (barnyard grass [6]; 320 g/ha): 5 (Herbicidal rate of 90% or more (almost completely withered)); P: chickweed, herbicidal effect grade (chickweed): 4 (Herbicidal rate of 70% or more and less than 90%); R: persian speedwell, herbicidal effect grade (persian speedwell): 5 (Herbicidal rate of 90% or more (almost completely withered))
3 | Cc1nn(C)c(=O)c(-c2c(-c3ccc4c(c3)OCCO4)sc3cc(F)ccc23)c1O [3-013] | 0 (Herbicidal rate of 5% or less (almost no effect)) | 0 (Herbicidal rate of 5% or less (almost no effect)) | 5 (Herbicidal rate of 90% or more (almost completely withered)) | 4 (Herbicidal rate of 70% or more and less than 90%) | 0 (Herbicidal rate of 5% or less (almost no effect)) | 4 (Herbicidal rate of 70% or more and less than 90%) | 3 (Herbicidal rate of 40% or more and less than 70%) | 0 (Herbicidal rate of 5% or less (almost no effect)) | 4 (Herbicidal rate of 70% or more and less than 90%) | 3 (Herbicidal rate of 40% or more and less than 70%) | 5 (Herbicidal rate of 90% or more (almost completely withered)) | 0 (Herbicidal rate of 5% or less (almost no effect)) | 0 (Herbicidal rate of 5% or less (almost no effect)) | 0 (Herbicidal rate of 5% or less (almost no effect)) | 1 (Herbicidal rate of 5% or more and less than 20%) | 5 (Herbicidal rate of 90% or more (almost completely withered)) | 4 (Herbicidal rate of 70% or more and less than 90%) | 
